In patent publication US5583117A (priority 1993, dated 1996):

Assays:
[1] = system: myocardial glycogen; conditions: cited from earlier work; for myocardial glycogen: intravenous infusion
[2] = system: atrial tissue; conditions: in vitro; cited from earlier work
[3] = system: isolated dog heart; conditions: cited from earlier work
[4] = system: isolated rat diaphragm muscle; conditions: cited from earlier work
[5] = system: adipose tissue; conditions: cited from earlier work
[6] = system: adrenalin-induced myocardial dystrophy; conditions: rat, in vivo; cited from earlier work
[7] = system: adrenalin-induced myocardial necrosis; conditions: cited from earlier work; for mortality and myocardial function: ECG readings, biochemical findings, relative heart weight
[8] = system: central nervous system pathologies; conditions: brain edema, cranial trauma, cerebral ischemia, chronic cerebrovascular diseases, Parkinson's disease; cited from earlier work
[9] = cited from earlier work
[10] = system: skeletal muscles; conditions: rat, in vivo; cited from earlier work
[11] = system: brain; conditions: in vivo; cited from earlier work
[12] = system: pyrimidine nucleoside phosphorylases; conditions: rat, in vivo; cited from earlier work
[13] = system: isolated rat heart; conditions: cited from earlier work
[14] = in vivo, po
Description: Blood samples (0.5 ml) were withdrawn at intervals of 1, 2, 3, and 4 hours after ingestion of the compound and were processed for subsequent determination of plasma uridine content by HPLC. On a separate day, the same procedure was carried out, except that an equal molar dose (18 mg/kg--1.3 grams in a 70 kilogram subject) of uridine was ingested instead of the acyl derivative.

[15] = system: myocardium; conditions: pretreatment; 2 hours after aortic stenosis; cited from earlier work
[16] = system: isolated rat hearts; conditions: reperfusion after low-flow ischemia; cited from earlier work
[17] = system: isolated rat hearts; conditions: cited from earlier work
[18] = system: experimentally-induced seizures; conditions: intraperitoneal injection; cited from earlier work
[19] = system: isolated rabbit hearts; conditions: cited from earlier work
[20] = cited from earlier work; remark: listed apart in the source
[21] = system: hepatocytes; conditions: cited from earlier work
[22] = system: isolated, perfused rat liver; conditions: in a single passage; cited from earlier work
[23] = system: heart; conditions: cited from earlier work
[24] = system: skeletal and cardiac muscle; conditions: cited from earlier work
[25] = system: liver function; conditions: in vivo; cited from earlier work
[26] = system: tyrosine-alpha-ketoglutarate; conditions: alone or in various combinations; cited from earlier work
[27] = Bioavailability of uridine and acyl uridine derivatives in rats (plasma by HPLC); assay type: in vivo, male F344 rats; conditions: rat, intubation into stomach, 0.28 moles/kg (printed), for at least four hours following ingestion
Description: Silastic catheters were implanted into the right jugular veins of anesthetized male F344 rats (Retired Breeders, 450-500 grams). After three days of recovery from surgery, the animals were placed in deep cylindrical cages, and their catheters were extended with a lengthened polyvinyl tubing, so that blood samples would be withdrawn without disturbing the rats. Basal blood samples were taken and the animals were divided into four groups, each containing four rats.

O=C[C@H](O)[C@H](O)[C@H](O)CO [ribose]
myocardial glycogen [1]: restoration of myocardial glycogen

O=C[C@H](O)[C@@H](O)[C@H](O)[C@H](O)CO [glucose]
contractability and extensibility of atrial tissue [2]: restored

Nc1ncnc2c1ncn2[C@@H]1O[C@H](CO)[C@@H](O)[C@H]1O [adenosine]
inotropic effect [3]: negatively inotropic

OC[C@H]1O[C@@H](n2cnc3c(O)ncnc32)[C@H](O)[C@@H]1O [inosine]
glucose uptake [4]: stimulate glucose uptake | lipolysis [5]: inhibited lipolysis | inotropic effect [3]: positive inotropic

O=c1ccn([C@@H]2O[C@H](COP(=O)(O)O)[C@@H](O)[C@H]2O)c(=O)[nH]1 [uridine-5'-monophosphate]
protective effect in adrenalin-induced myocardial dystrophy [6]: protective effect

O=c1ccn([C@@H]2O[C@H](COP(=O)([O-])[O-])[C@@H](O)[C@H]2O)c(=O)[nH]1.[Na+].[Na+] [UMP, Sodium uridine monophosphate]
mortality and myocardial function [7]: reduced mortality and improved myocardial function | prophylactic effect vs potassium orotate ([7]; in vivo): more pronounced prophylactic effect | resistance to adrenalin-induced myocardial necrosis ([7]; in vivo): increase the animal's resistance

CC(C)NCC(O)c1ccc(O)c(O)c1 (stereo not shown) [isoproterenol]
cardiac glycogen stores, myocardial UTP and UDP-glucose levels ([1]; isoproterenol): depleted cardiac glycogen stores and reduced myocardial UTP and UDP-glucose levels

C[N+](C)(C)CCOP(=O)(O)OP(=O)([O-])OC[C@H]1O[C@@H](n2ccc(N)nc2=O)[C@H](O)[C@@H]1O [CDP-choline, cytidine-diphosphocholine]
therapeutic efficacy [8]: Therapeutic efficacy has been documented | time of breakdown to cytidine and choline ([9]; intravenous injection): ≤ 30 s | intact compound in circulation ([9]; oral): no intact CDP-choline enters the circulation | plasma cytidine and choline concentrations ([9]; oral): rise | degradation following administration ([9]; yielding cytidine, choline, and phosphate): very rapidly degraded

Nc1ccn([C@@H]2O[C@H](CO)[C@@H](O)[C@H]2O)c(=O)n1 [cytidine]
muscular concentrations of Krebs cycle intermediates [10]: affect the muscular concentrations of Krebs cycle intermediates | brain uptake [11]: not very readily taken up by the brain | specific activity of liver homogenates [12]: increased | inotropic effect [3]: negatively inotropic | myocardial cytosine nucleotide levels ([13]; 30 minute supply of cytidine): significantly increased | conversion of cytidine taken up into uridine nucleotides [13]: Very little

O=c1ccn([C@@H]2O[C@H](CO)[C@@H](O)[C@H]2O)c(=O)[nH]1 [uridine]
plasma uridine level [14]: exceeded 10 micromolar | decrease in maximal pressure upon aortic ligation [15]: prevented | myocardial ATP levels, total adenine nucleotide content, uridine nucleotide levels, glycogen content [16]: induced restoration | contractability and extensibility of atrial tissue [2]: restored | glucose uptake [4]: stimulate glucose uptake | glycogen synthesis [4]: only uridine increased glycogen synthesis | rate of incorporation of uridine ([17]; following low-flow ischemia): increased twofold | myocardial uracil nucleotide content ([17]; perfusion): concentration-dependent elevation | anticonvulsant effect [18]: strong protection | myocardial glycogen [1]: restoration of myocardial glycogen | lipolysis [5]: inhibited lipolysis | myocardial performance, glucose uptake, glycolysis, glycogen and adenine nucleotides ([19]; hypoxic hearts): increased myocardial performance, glucose uptake and glycolysis and also diminished the disappearance of glycogen and adenine nucleotides | glucose uptake, glycolysis, ATP and glycogen levels, myocardial performance ([19]; propranolol-treated hearts): increased glucose uptake, glycolysis, levels of ATP and glycogen, as well as myocardial performance | inotropic effect [3]: positive inotropic | plasma levels of uridine ([20]; mouse, in vivo, po, 350 mg/kg): not perturbed | elevation of plasma uridine levels ([20]; mouse, in vivo, po, 3500 mg/kg): observed only after oral administration of high doses | time to return of plasma uracil to normal ([20]; oral uridine, 350 mg/kg): 4 h | incorporation of glucose into glycogen [21]: increase | tissue uridine nucleotide pools [21]: expanded | degradation of infused uridine [22]: more than 90% | supporting myocardial hyperfunction ([23]; in vivo): relatively ineffective | myocardial heart-pathology benefit of uridine in intact animals ([23]; intact (alive and free-running) animals): no beneficial effect | difference from controls in rats developing hypertrophy of the heart ([23]; rat, in vivo): no difference | glucose uptake and glycogen synthesis [24]: enhance glucose uptake and glycogen synthesis | protective effect in adrenalin-induced myocardial dystrophy [6]: relatively ineffective

O=c1ccn([C@@H]2O[C@H](COP(=O)(O)OP(=O)(O)O)[C@@H](O)[C@H]2O)c(=O)[nH]1 [uridine diphosphate]
improvement of liver function [25]: improve certain aspects of liver function

Nc1nc2c(ncn2[C@@H]2O[C@H](CO)[C@@H](O)[C@H]2O)c(=O)[nH]1 [guanosine]
inotropic effect [3]: positive inotropic

C[C@]12CCC(=O)C=C1CC[C@@H]1[C@@H]2[C@@H](O)C[C@@]2(C)[C@H]1CC[C@]2(O)C(=O)CO [hydrocortisone]
tyrosine-alpha-ketoglutarate activity [26]: increase

O=C([O-])c1cc(=O)[nH]c(=O)[nH]1.[K+] [potassium orotate]
mortality and myocardial function [7]: reduced mortality and improved myocardial function | resistance to adrenalin-induced myocardial necrosis ([7]; in vivo): increase the animal's resistance

O=C(O)[C@H]1O[C@H](OP(=O)(O)OP(=O)(O)OC[C@H]2O[C@@H](n3ccc(=O)[nH]c3=O)[C@H](O)[C@@H]2O)[C@H](O)[C@@H](O)[C@@H]1O [uridine-diphosphoglucuronic acid]
improvement of liver function [25]: improve certain aspects of liver function

Cc1cn([C@H]2C[C@H](O)[C@@H](CO)O2)c(=O)[nH]c1=O [thymidine]
inotropic effect [3]: positive inotropic

CC(=O)OC[C@H]1O[C@@H](n2ccc(=O)[nH]c2=O)[C@H](OC(C)=O)[C@@H]1OC(C)=O [TAU, 2',3',5'-tri-O-acetyl uridine]
plasma level of uridine vs equal molar dose of uridine [14]: substantially higher | plasma uridine level [14]: exceeded 10 micromolar | time uridine levels sustained in the useful therapeutic range [14]: at least four | plasma levels of uridine vs equimolar dose of uridine [27]: significantly higher for at least four hours
